Where two headings read alike, the source gives them in different places.
Assays:
HDAC8 = target: T1, HDAC8 (Homo sapiens, UniProt Q9BY41); experiment: HDAC biochemical activity measurement (fluorescent substrate deacetylation); details: 37° C. 30 minutes
T1 sequence (Q9BY41 1-377): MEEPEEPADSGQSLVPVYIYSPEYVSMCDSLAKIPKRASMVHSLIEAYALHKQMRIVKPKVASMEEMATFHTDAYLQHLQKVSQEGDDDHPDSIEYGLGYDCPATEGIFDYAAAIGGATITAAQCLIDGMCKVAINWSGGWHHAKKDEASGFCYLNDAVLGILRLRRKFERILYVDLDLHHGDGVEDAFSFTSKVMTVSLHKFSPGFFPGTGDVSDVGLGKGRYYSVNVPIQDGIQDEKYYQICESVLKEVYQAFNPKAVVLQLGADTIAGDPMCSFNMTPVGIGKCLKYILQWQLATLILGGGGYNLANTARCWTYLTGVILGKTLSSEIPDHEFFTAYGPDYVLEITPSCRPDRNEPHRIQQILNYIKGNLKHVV

HDAC3 = HDAC3 (Homo sapiens, UniProt O15379); experiment: as above;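 note: fluorogenic acetyl-lysine substrate (20 µM) deacetylated by HDAC3, then developer added for 15 min at room temperature, release of fluorophore read at excitation 360 nm, emission 460 nm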
Chain of HDAC3 (O15379 whole entry, species assumed): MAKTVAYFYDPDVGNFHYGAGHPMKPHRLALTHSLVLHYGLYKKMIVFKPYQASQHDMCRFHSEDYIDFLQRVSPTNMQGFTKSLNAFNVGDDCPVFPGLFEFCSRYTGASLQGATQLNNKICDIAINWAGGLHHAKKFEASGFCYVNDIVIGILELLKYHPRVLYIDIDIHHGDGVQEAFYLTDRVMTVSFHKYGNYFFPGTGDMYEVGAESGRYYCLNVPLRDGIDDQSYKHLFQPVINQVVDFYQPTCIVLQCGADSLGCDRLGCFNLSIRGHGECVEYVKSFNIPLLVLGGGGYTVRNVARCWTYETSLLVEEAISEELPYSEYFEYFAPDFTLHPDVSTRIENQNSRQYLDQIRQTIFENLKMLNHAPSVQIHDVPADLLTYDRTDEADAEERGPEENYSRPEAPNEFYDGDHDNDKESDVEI
Chain of HDAC3 (Q9Y618 395-489 partner limits assumed, species assumed): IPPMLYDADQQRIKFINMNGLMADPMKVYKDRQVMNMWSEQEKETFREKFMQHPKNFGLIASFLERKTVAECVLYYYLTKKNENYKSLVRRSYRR

HDAC1 = HDAC1 (Homo sapiens, UniProt Q13547); experiment: as above;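 note: fluorogenic acetyl-lysine substrate (20 µM) deacetylated by HDAC1, then developer releases fluorophore read at 360 nm excitation and 460 nm emission, inhibitor incubated 30 min at 37 °C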
Chain of HDAC1 (Q13547 whole entry, species assumed): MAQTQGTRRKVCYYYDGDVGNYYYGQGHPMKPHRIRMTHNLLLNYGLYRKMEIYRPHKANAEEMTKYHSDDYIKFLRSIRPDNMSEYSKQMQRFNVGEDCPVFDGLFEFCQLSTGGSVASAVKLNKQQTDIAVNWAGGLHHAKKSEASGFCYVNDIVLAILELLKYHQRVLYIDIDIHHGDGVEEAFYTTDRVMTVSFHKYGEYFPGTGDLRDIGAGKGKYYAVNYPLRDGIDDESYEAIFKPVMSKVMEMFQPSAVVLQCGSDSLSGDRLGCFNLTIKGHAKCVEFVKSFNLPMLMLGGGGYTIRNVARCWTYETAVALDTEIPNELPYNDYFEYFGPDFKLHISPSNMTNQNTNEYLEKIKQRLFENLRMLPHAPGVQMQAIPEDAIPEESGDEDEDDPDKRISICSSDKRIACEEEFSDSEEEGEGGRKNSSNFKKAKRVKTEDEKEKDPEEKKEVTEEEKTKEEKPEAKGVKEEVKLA

[1] = tested on: MCF-7 (human breast cancer cells); experiment: MTT cancer cell growth inhibition; type: cell-based; details: Homo sapiens, MCF7, 72 h
Procedure, shortened: (§1)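 GI50 values come from viability measured by MTT reduction at 570 nm. Plated overnight at 1500 cells per well, cultures received drug in three parallel wells across 10^−5–10^−10 M final and were incubated 72 h at 37° C. under 5% CO2 before MTT for 4 h.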

[2] = tested on: DU145 (human prostate cancer cells); experiment: MTT cancer cell growth inhibition; type: cell-based; details: Homo sapiens, DU-145, 72 h, MTT
Procedure, shortened: as §1

[3] = tested on: PANC-1 (Pac-1, human pancreatic cancer cells); experiment: MTT cancer cell growth inhibition; type: cell-based; details: Homo sapiens, PANC-1, 72 h, MTT
Procedure, shortened: as §1

[4] = tested on: lncap (prostate cancer cells); experiment: MTT cancer cell growth inhibition; type: cell-based; details: Homo sapiens, LNCaP, 72 h, MTT
Procedure, shortened: as §1

[5] = tested on: Bel-7402 (human hepatoma cells); experiment: MTT cancer cell growth inhibition; type: cell-based; details: Homo sapiens, Bel-7402, 72 h, MTT, 72 hours incubation, Bel-7402 cells; read-out: GI50 Bel-7402
Procedure, shortened: as §1

[6] = tested on: Huh-7 (human hepatoma cells); experiment: MTT cancer cell growth inhibition; type: cell-based; details: Homo sapiens, Huh-7, 72 h, MTT, 72 hours incubation, Huh-7 cells; read-out: GI50 Huh-7
Procedure, shortened: as §1

[7] = tested on: U937 (human leukemia cells); experiment: MTT cancer cell growth inhibition; type: cell-based; details: Homo sapiens, U-937, 72 h, MTT
Procedure, shortened: as §1

[8] = tested on: A549 (human lung cancer cells); experiment: MTT cancer cell growth inhibition; type: cell-based; details: Homo sapiens, A549, 72 h, MTT
Procedure, shortened: as §1

[9] = tested on: BGC-823 (human gastric cancer cells); experiment: MTT cancer cell growth inhibition; type: cell-based; details: Homo sapiens, BGC-823, 72 h, MTT
Procedure, shortened: as §1

[10] = tested on: MOLT-4 (human acute lymphoblastic leukemia cells); experiment: MTT cancer cell growth inhibition; type: cell-based; details: Homo sapiens, MOLT-4, 72 h, MTT
Procedure, shortened: as §1

[11] = read-out: IC50 HDAC3, HDAC3, 37° C. 30 minutes
[12] = HDAC1, 37° C. 30 minutes, read-out: IC50 HDAC1
[13] = Table 2, read-out: IC50 HDAC1, a (compounds of the present invention)
[14] = 72 hours, present invention, read-out: GI50 MCF7, a
[15] = MCF-7 cells, 72 hours incubation, read-out: GI50 MCF
[16] = DU145 cells, 72 hours incubation, read-out: GI50 Du1
[17] = 72 hours, present invention, read-out: GI50 Du145, a
[18] = 72 hours, present invention, read-out: GI50 PANC-1, a
[19] = PANC-1 cells, 72 hours incubation, read-out: GI50 PAN
[20] = 72 hours, present invention, read-out: GI50 lncap, a
[21] = lncap cells, 72 hours incubation, read-out: GI50 lnca
[22] = 72 hours, present invention, read-out: GI50 U937, a
[23] = U937 cells, 72 hours incubation, read-out: GI50 U93
[24] = A549 cells, 72 hours incubation, read-out: GI50 A54
[25] = 72 hours, present invention, read-out: GI50 A549, a
[26] = BGC-823 cells, 72 hours incubation, read-out: GI50 BG
[27] = 72 hours, present invention, read-out: GI50 BGC823, a
[28] = MOLT-4 cells, 72 hours incubation, read-out: GI50 Mol
[29] = 72 hours, present invention, read-out: GI50 Molt-4, a
[30] = 72 hours incubation, read-out: GI50 MCF
[31] = 72 hours incubation, read-out: GI50 Du1
[32] = 72 hours incubation, read-out: GI50 PAN
[33] = 72 hours incubation, read-out: GI50 lnca
[34] = 72 hours incubation, read-out: GI50 U93
[35] = 72 hours incubation, read-out: GI50 A54
[36] = 72 hours incubation, read-out: GI50 BG
[37] = 72 hours incubation, read-out: GI50 Mol

SMILES	IC50 (HDAC8)	IC50 (HDAC3; [11])	IC50 (HDAC1; [12])	IC50 (HDAC1; [13])	GI50 [1, 14]	GI50 [1, 15]	GI50 [2, 16]	GI50 [2, 17]	GI50 [3, 18]	GI50 [3, 19]	GI50 [4, 20]	GI50 [4, 21]	GI50 [5]	GI50 [6]	GI50 [7, 22]	GI50 [8, 24]	GI50 [8, 25]	GI50 [9, 26]	GI50 [9, 27]	GI50 [10, 29]	other results
C/C=C1\NC(=O)c2nc(ccc2C)CNC(=O)C[C@@H](/C=C/CCSC(=O)CCCCCCC)OC(=O)[C@H](C(C)C)NC1=O [Compound 243]	129 nM	48 nM	87 nM	< 100 nM	120 nM	120 nM	130 nM	130 nM	520 nM	520 nM	470 nM	470 nM	35 nM	53 nM	870 nM	940 nM	940 nM	860 nM	860 nM	490 nM	GI50 [7, 23]: 870 nM; GI50 [10, 28]: 490 nM
C/C=C1\NC(=O)c2nc(ccc2F)CNC(=O)C[C@@H](/C=C/CCSC(=O)CC)OC(=O)[C@H](C(C)C)NC1=O [Example 45]	25 nM		64 nM										61 nM	37 nM							IC50 (HDAC3): 41 nM; GI50 [1, 30]: 50 nM; GI50 [2, 31]: 30 nM; GI50 [3, 32]: 60 nM; GI50 [4, 33]: 30 nM; GI50 [7, 34]: 30 nM; GI50 [8, 35]: 40 nM; GI50 [9, 36]: 50 nM; GI50 [10, 37]: 30 nM
C/C=C1\NC(=O)c2cc(F)cc(n2)CNC(=O)C[C@@H](/C=C/CCSC(C)=O)OC(=O)[C@H](CC)NC1=O [Compound 58]	51 nM	29 nM	32 nM										49 nM	39 nM							IC50 (HDAC1; Table 3, column C, read-out: IC50 HDAC1, C (six-membered ring with substituents)): 32 nM; GI50 [1, 30]: 80 nM; GI50 [2, 31]: 20 nM; GI50 [3, 32]: 40 nM; GI50 [4, 33]: 30 nM; GI50 [7, 34]: 60 nM; GI50 [8, 35]: 50 nM; GI50 [9, 36]: 60 nM; GI50 [10, 37]: 30 nM
C/C=C1\NC(=O)c2cccc(n2)CNC(=O)C[C@@H](/C=C/CCSC(=O)CCCCCCC)OC(=O)[C@H](CC(C)C)NC1=O [Compound 241]	33 nM		28 nM	< 30 nM	28 nM	20 nM		3 nM	170 nM	170 nM	25 nM	20 nM	47 nM	64 nM	7 nM	110 nM	110 nM	100 nM	100 nM	3 nM	IC50 (HDAC3): 62 nM
CCCCCCCC(=O)SCC/C=C/[C@@H]1CC(=O)NCc2cccc(n2)C(=O)NCC(=O)N[C@@H](C(C)C)C(=O)O1 [Compound 246]	132 nM	87 nM	90 nM	< 100 nM	310 nM	310 nM	20 nM	20 nM	870 nM	870 nM	130 nM	130 nM	38 nM	21 nM	110 nM	110 nM	110 nM	1020 nM	1020 nM	910 nM	GI50 [7, 23]: 110 nM; GI50 [10, 28]: 910 nM

Source: patent US10065990B2, “Cyclic peptide compound, and preparation method, pharmaceutical composition and use thereof” (HANGZHOU GUANYU BIO-MEDICAL CO., LTD, priority 2013, dated 2018)
